Target: T1, ABL1 E255K (Homo sapiens, UniProt P00519, E255K)
T1 construct: purchased Thermo Fisher Scientific (Life Technologies) SelectScreen
Assay: SelectScreen Z'LYTE
Format: biochemical
In short: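 SelectScreen broad panel; activity (Z'LYTE, Adapta) plus binding formats. ATP: Km app for CSF1R Z'LYTE; 10 for CAMK1 Adapta. Readout = % per kinase.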

T1 sequence (P00519 whole entry E255K): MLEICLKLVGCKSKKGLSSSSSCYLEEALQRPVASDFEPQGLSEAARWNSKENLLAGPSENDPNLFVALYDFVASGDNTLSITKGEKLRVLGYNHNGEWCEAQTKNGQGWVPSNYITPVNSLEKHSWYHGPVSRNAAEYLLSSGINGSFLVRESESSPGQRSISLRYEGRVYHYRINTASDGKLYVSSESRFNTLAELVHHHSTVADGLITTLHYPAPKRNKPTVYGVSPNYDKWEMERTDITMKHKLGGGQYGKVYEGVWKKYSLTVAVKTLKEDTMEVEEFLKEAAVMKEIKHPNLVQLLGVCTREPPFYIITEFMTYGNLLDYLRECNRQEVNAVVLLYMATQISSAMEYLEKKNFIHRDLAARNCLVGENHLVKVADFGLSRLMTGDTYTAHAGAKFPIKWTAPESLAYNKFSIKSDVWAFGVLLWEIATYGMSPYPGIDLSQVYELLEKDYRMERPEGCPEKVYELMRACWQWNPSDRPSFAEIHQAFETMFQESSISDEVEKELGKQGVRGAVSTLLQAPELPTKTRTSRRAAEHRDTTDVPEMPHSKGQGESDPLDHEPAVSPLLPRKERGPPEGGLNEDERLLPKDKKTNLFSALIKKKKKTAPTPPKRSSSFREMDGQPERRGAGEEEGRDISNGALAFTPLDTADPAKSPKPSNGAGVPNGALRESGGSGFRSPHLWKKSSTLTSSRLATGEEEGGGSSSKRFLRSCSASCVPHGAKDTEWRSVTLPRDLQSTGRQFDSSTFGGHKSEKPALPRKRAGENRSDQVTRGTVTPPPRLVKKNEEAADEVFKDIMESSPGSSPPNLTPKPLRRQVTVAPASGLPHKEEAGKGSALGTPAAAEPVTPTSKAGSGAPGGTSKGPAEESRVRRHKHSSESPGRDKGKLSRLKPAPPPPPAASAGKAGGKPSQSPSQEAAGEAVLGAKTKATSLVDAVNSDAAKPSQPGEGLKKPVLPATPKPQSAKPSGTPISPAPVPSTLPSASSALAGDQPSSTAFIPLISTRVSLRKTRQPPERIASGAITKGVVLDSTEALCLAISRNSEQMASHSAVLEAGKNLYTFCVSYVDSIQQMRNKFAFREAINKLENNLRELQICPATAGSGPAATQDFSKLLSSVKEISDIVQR

CN(C(=O)CN1CCOCC1)c1ccc2sc3c(-c4cccc5c(=O)cc(N6CC7CCC(C6)O7)oc45)cccc3c2c1 [NU5455]
inhibition at 1 µM: -6.6%
